Reference: US6841563B1, “Aryloxy propanolamines for improving livestock production” (Eli Lilly and Company, priority 1999, dated 2005)
Marks after values point to notes of the source that are not given here.

Experiments:
[1] = Weight gain, feed efficiency and carcass characteristics, last 14 days of growing period in broiler chickens; format: in vivo; details: for Dressing Percentage / Fat Pad Weight / Final Weight / Hot Carcass Weights / Pen Feed Intake / Total 14 day Weight Gain / Viscera Weight / Feed Efficiency F/G: day 35-49; for Feed Efficiency F/G: pen feed intake/total pen weight; for increase in weight gain over control / improvement of feed efficiency versus control: 14-day treatment period
Description: Approximately 1500 Peterson-Hubbard, day-old, male chicks were used in a randomized, complete-block design with 4 treatments (Control, Clenbuterol at 1 PPM, and Compound 6 at 3 and 15 PPM (mg/kg feed)). The testing facility contained 36 pens, divided equally into 6 blocks. Treatments were randomly allotted to pens within each block. Each treatment consisted of 6 pens with 10 birds per pen.
Day-of-age birds were obtained from Pine Manor Hatchery in Goshen, Ind. Approximately 40 birds per pen were set at random upon receipt. On day 30 of the growout period, all birds were weighed and the 15 birds closest to the block mean were selected. These birds were allowed to acclimate until day 35 of age. On that day, all remaining birds were weighed again, and the 10 birds/pen closest to the block mean were chosen for the treatment phase. Birds were provided ad libitum access to feed and water throughout the trial. All birds were fed a 23% crude protein corn-soy ration from day 1 until day 18 of age. The feed was changed to a 20% crude protein corn-soy ration from day 18 to day 49. The treatment feed was mixed using the same 20% crude protein basal ration. Treatments were administered in the feed from day 35 through day 49. Feed consumption was calculated over the entire 14-day treatment period. Birds were weighed at trial completion (day 49), and transported to Purdue University, West Lafayette, Ind. 47907, U.S.A. meat laboratory for slaughter and carcass measurements on day 50. Weights of the hot carcass, fat pad, and viscera were taken on all animals.

[2] = Weight gain, feed efficiency, breast and leg quarter weights, last 28 days of growing period in broiler chickens; format: in vivo; details: for Bone-in, Skin-on Breast Weight / Bone-in, Skin-on leg Quarter Weight / Dressing Percentage / Fat Pad Weight / Final Weight Day 49 / Hot Carcass Weight / Interim Weight Day 35 / Pen Feed Intake / Total Weight Gain (d 21-49) / Viscera Weight / Weight Gain Period 1 (d 21-35) / Weight Gain Period 2 (d 35-49) / Feed Efficiency F/G: day 21-49; for Feed Efficiency F/G: pen feed intake/total pen weight; for improvement of feed efficiency (feed/gain) compared with control: 28-day treatment period
Description: Approximately 2500 Peterson-Hubbard, day-old, male chicks were used in a randomized, complete-block design with 3 treatments (Control and Compound 6 at 3 and 15 PPM (mg/kg feed)). The testing facility contained two wings, each containing 30 pens. The pens in each wing were divided into 6 blocks of 5 pens. Treatments were randomly allotted within each block. Each treatment consisted of 12 pens with 10 birds per pen.
Day-of-age birds were obtained from Pine Manor Hatchery in Goshen, Ind. Approximately 40 birds per pen were set at random upon receipt. On day 16 of the growout period, all birds were weighed and the 15 birds closest to the block mean were selected. These birds were allowed to acclimate until day 21 of age. On this day, all remaining birds were weighed again, and the 10 birds/pen closest to the block mean were chosen for the treatment phase. Birds were provided ad libitum access to feed and water throughout the trial. All birds were fed a 23% crude protein corn-soy ration from day 1 until day 18 of age. The feed was changed to a 20% crude protein ration for day 18 to day 49. The treatment feed was mixed using the 20% crude protein basal ration. Treatments were administered in the feed from day 21 through day 49. An interim weight was taken on day 35. Feed consumption was calculated over the entire 28-day treatment period. Birds were weighed at trial completion (day 49), and were transported to Purdue University meat laboratory for slaughter and carcass measurements on day, 50. Weights of the hot carcass; fat pad; viscera; bone-in, skin-on breast; and bone-in, skin-on, leg quarter were taken on all animals.

Structure (SMILES): CC(C)(Cc1ccc(Oc2ncccc2C(N)=O)cc1)NC[C@H](O)COc1cccc2[nH]ccc12 [Compound 6, (S)-2-[4-[2-[2-Hydroxy-3-(1H-indol-4-yloxy)propylamino]-2-methylpropyl]-phenoxy]-3-pyridinecarboxamide]
- Dressing Percentage ([1]; 3 PPM in feed): 72.43*
- Fat Pad Weight ([1]; 3 PPM in feed): 28.67 g
- Final Weight ([1]; 3 PPM in feed): 3.02 kg
- Hot Carcass Weights ([1]; 3 PPM in feed): 2175.69* g
- Pen Feed Intake ([1]; 3 PPM in feed): 25.74 kg
- Total 14 day Weight Gain ([1]; 3 PPM in feed): 1.30 kg
- Viscera Weight ([1]; 3 PPM in feed): 283.04 g
- Feed Efficiency F/G ([1]; 3 PPM in feed): 1.95
- increase in weight gain over control ([1]; 3 PPM, P=0.0987): 3.17%
- improvement of feed efficiency versus control ([1]; 3 PPM, P=0.2936): 2.50%
- increase in hot carcass weights compared to control ([1]; 3 PPM, P=0.0174): 2.50%
- increase in fat pad weight ([1]; 3 PPM, P=0.1069): 9.68%
- decrease in viscera weights with respect to control ([1]; 3 PPM, P=0.3981): 1.50%
- Dressing Percentage ([1]; 15 PPM in feed): 72.63**
- Fat Pad Weight ([1]; 15 PPM in feed): 27.21 g
- Final Weight ([1]; 15 PPM in feed): 3.02 kg
- Hot Carcass Weights ([1]; 15 PPM in feed): 2182.55** g
- Pen Feed Intake ([1]; 15 PPM in feed): 25.25 kg
- Total 14 day Weight Gain ([1]; 15 PPM in feed): 1.30 kg
- Viscera Weight ([1]; 15 PPM in feed): 285.49 g
- Feed Efficiency F/G ([1]; 15 PPM in feed): 1.94
- increase in weight gain over control ([1]; 15 PPM, P=0.0756): 3.17%
- improvement of feed efficiency versus control ([1]; 15 PPM, P=0.1957): 3.00%
- increase in hot carcass weights compared to control ([1]; 15 PPM, P=0.0078): 2.82%
- increase in fat pad weight ([1]; 15 PPM, P=0.4814): 4.09%
- decrease in viscera weights with respect to control ([1]; 15 PPM, P=0.7279): 0.65%
- Bone-in, Skin-on Breast Weight ([2]; 3 PPM in feed): 618.03* g
- Bone-in, Skin-on leg Quarter Weight ([2]; 3 PPM in feed): 665.64** g
- Dressing Percentage ([2]; 3 PPM in feed): 71.14**
- Fat Pad Weight ([2]; 3 PPM in feed): 51.67 g
- Final Weight Day 49 ([2]; 3 PPM in feed): 2.78** kg
- Hot Carcass Weight ([2]; 3 PPM in feed): 1995.58** g
- Interim Weight Day 35 ([2]; 3 PPM in feed): 1.66* kg
- Pen Feed Intake ([2]; 3 PPM in feed): 41.22 kg
- Total Weight Gain (d 21-49) ([2]; 3 PPM in feed): 2.09** kg
- Viscera Weight ([2]; 3 PPM in feed): 265.82 g
- Weight Gain Period 1 (d 21-35) ([2]; 3 PPM in feed): 0.96* kg
- Weight Gain Period 2 (d 35-49) ([2]; 3 PPM in feed): 1.12** kg
- Feed Efficiency F/G ([2]; 3 PPM in feed): 2.04
- improvement of feed efficiency (feed/gain) compared with control ([2]; 3 PPM, P=0.1426): 6.85%
- increase in bone-in, skin-on, leg quarters weight ([2]; 3 PPM, P=0.0001): 10.63%
- increase in hot carcass weights over control ([2]; 3 PPM, P=0.0001): 6.50%
- decrease in viscera weights compared to control ([2]; 3 PPM, P=0.4004): 1.54%
- increase in weight gain over control ([2]; 3 PPM, entire 28-day treatment period, P=0.0051): 5.03%
- increase in weight gain over control ([2]; 3 PPM, first 14 days of the treatment period, P=0.0395): 3.22%
- increase in weight gain over control ([2]; 3 PPM, last 14 days of treatment, P=0.0064): 6.67%
- Bone-in, Skin-on Breast Weight ([2]; 15 PPM in feed): 600.55 g
- Bone-in, Skin-on leg Quarter Weight ([2]; 15 PPM in feed): 635.36** g
- Dressing Percentage ([2]; 15 PPM in feed): 71.16**
- Fat Pad Weight ([2]; 15 PPM in feed): 49.16 g
- Final Weight Day 49 ([2]; 15 PPM in feed): 2.70 kg
- Hot Carcass Weight ([2]; 15 PPM in feed): 1928.17* g
- Interim Weight Day 35 ([2]; 15 PPM in feed): 1.63 kg
- Pen Feed Intake ([2]; 15 PPM in feed): 39.09 kg
- Total Weight Gain (d 21-49) ([2]; 15 PPM in feed): 2.01 kg
- Viscera Weight ([2]; 15 PPM in feed): 261.08 g
- Weight Gain Period 1 (d 21-35) ([2]; 15 PPM in feed): 0.94 kg
- Weight Gain Period 2 (d 35-49) ([2]; 15 PPM in feed): 1.07 kg
- Feed Efficiency F/G ([2]; 15 PPM in feed): 2.09
- improvement of feed efficiency (feed/gain) compared with control ([2]; 15 PPM, P=0.3594): 4.57%
- increase in bone-in, skin-on, leg quarters weight ([2]; 15 PPM, P=0.0003): 5.60%
- increase in hot carcass weights over control ([2]; 15 PPM, P=0.0434): 2.90%
- decrease in viscera weights compared to control ([2]; 15 PPM, P=0.0764): 3.29%
- increase in weight gain over control ([2]; 15 PPM, entire 28-day treatment period, P=0.5419): 1.01%
- increase in weight gain over control ([2]; 15 PPM, first 14 days of the treatment period, P=0.7600): 1.08%
- increase in weight gain over control ([2]; 15 PPM, last 14 days of treatment, P=0.5028): 1.90%
- effect on fat pad weight (fat accretion) ([2]; at either dose (3 PPM, 15 PPM)): no significant effect
- increase in breast muscle weight (bone and skin attached) ([2]; high dose (15 PPM), P=0.5351): 1.06%
- increase in breast muscle weight (bone and skin attached) ([2]; low dose (3 PPM), P=0.0227): 4.00%
